Reference: ChEMBL document CHEMBL1133772, “In vitro and in vivo evaluation of dihydropyrimidinone C-5 amides as potent and selective alpha(1A) receptor antagonists for the treatment of benign prostatic hyperplasia” (J Med Chem, 2000)

Legend:
[1] = biological target: T1, Alpha-1D adrenergic receptor (Homo sapiens, UniProt P25100); experiment: Evaluated for the ability to displace [125I]- HEAT from human cloned Alpha-1D adrenergic receptor stably expressed in HEK cells.; format: cell-based, HEK293
T1 sequence (P25100 whole entry): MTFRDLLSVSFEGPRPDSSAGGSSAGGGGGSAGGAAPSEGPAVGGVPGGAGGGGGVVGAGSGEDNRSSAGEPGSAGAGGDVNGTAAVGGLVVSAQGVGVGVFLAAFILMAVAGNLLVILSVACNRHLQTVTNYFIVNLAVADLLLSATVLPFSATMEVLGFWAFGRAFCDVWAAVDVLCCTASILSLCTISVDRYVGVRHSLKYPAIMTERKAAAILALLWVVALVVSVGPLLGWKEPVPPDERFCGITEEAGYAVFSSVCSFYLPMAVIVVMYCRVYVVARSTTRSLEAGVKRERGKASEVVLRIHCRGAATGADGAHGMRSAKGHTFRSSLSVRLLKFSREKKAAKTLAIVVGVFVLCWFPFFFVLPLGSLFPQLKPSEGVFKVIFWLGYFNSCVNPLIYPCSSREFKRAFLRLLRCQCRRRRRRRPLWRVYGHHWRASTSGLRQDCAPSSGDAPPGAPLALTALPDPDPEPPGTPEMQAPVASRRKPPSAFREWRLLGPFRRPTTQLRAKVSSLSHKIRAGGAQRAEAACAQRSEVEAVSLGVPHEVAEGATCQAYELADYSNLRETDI

[2] = species on record: Rattus norvegicus; experiment: Duration of action with repeated challenges of A61603 agonist in rat; format: functional; note: test concentration or dose not given here
[3] = t1/2 in rat; format: ADME, organism-based; details: in vivo
[4] = biological target: T2, Alpha-1A adrenergic receptor (Homo sapiens, UniProt P35348); experiment: Evaluated for the ability to displace [125I]- HEAT from human cloned Alpha-1A adrenergic receptor stably expressed in CHO cells.; format: cell-based
T2 sequence (P35348 whole entry): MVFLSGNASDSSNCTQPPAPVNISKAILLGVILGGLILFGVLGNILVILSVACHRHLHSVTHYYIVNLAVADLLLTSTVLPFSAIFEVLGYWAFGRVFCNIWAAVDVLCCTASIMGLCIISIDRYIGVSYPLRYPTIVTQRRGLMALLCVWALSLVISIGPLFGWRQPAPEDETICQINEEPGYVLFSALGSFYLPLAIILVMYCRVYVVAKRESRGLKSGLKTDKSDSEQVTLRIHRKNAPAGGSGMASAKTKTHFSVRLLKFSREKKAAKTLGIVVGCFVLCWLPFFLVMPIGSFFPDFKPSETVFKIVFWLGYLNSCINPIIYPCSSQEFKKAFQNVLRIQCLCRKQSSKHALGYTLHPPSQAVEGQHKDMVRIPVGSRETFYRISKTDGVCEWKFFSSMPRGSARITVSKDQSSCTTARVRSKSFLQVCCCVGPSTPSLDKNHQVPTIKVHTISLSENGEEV

[5] = species on record: Rattus norvegicus; experiment: Evaluated for the inhibition of A61603-induced prostate contraction in rat; format: functional, Prostate gland
[6] = biological target: T3, Alpha-1B adrenergic receptor (Homo sapiens, UniProt P35368); experiment: Evaluated for the ability to displace [125I]- HEAT from human cloned Alpha-1B adrenergic receptor stably expressed in LM cells.; format: cell-based
T3 sequence (P35368 whole entry): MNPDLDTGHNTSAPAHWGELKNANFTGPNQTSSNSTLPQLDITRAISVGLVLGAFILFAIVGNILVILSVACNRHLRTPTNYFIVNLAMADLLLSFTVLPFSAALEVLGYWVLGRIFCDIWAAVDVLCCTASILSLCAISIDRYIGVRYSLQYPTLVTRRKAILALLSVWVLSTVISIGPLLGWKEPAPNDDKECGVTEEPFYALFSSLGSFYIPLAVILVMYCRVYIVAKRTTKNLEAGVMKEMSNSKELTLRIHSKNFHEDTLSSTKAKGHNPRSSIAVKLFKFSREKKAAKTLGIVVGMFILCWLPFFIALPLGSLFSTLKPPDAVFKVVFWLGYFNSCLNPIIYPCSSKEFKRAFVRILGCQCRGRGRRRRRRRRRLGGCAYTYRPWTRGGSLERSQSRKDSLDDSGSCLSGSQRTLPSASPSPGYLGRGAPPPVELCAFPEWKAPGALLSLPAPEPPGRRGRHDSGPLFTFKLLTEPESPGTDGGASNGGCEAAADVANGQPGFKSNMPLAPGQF

[7] = Bioavailability in rat; format: ADME, organism-based; details: in vivo
[8] = biological target: T1, Alpha-1D adrenergic receptor; experiment: Ability to displace [125I]- HEAT from human cloned Alpha-1D adrenergic receptor stably expressed in HEK cells.; format: cell-based, HEK293
[9] = biological target: T3, Alpha-1B adrenergic receptor; experiment: Ability to displace [125I]- HEAT from human cloned Alpha-1B adrenergic receptor stably expressed in LM cells.; format: cell-based
[10] = biological target: T2, Alpha-1A adrenergic receptor; experiment: Ability to displace [125I]- HEAT from human cloned Alpha-1A adrenergic receptor stably expressed in CHO cells.; format: cell-based
[11] = species on record: Canis familiaris; experiment: Dose effecting a 20 mmHg change in diastolic blood pressure in dog.; format: functional, Canis lupus familiaris, Artery
[12] = species on record: Canis familiaris; experiment: Compound was evaluated for the inhibition of phenylephrine-induced contraction in dog.; format: functional, Canis lupus familiaris

Structure (SMILES)	Ki [1] [nM]	Duration [2] [h]	half-life [3] [min]	Ki [4] [nM]	AD50 [5] [µg/kg]	Ki [6] [nM]	bioavailability [7] [%]	Ki [8] [nM]	Ki [9] [nM]	Ki [10] [nM]	DBP-20 [11] [µg/kg]	AD50 [12] [µg/kg]
N#CC1(c2ccc(F)cc2)CCN(CCCNC(=O)C2=CNC(=O)N[C@@H]2c2ccc(F)c(F)c2)CC1	810	0.75	140	0.17	7	140	0	–	–	–	–	–
CN1C=C(C(=O)NCCCN2CCC(C#N)(c3ccc(F)cc3C#N)CC2)[C@@H](c2ccc(F)c(F)c2)NC1=O	630	3.5	< 60	0.18	4	440	0	–	–	–	–	–
CC1=C(C(=O)NCCCN2CCC(c3ccccn3)CC2)[C@@H](c2ccc(F)c(F)c2)NC(=O)N1	> 5000	0.5	42	2.6	2.3	> 2000	0	–	–	–	–	–
COCC1=C(C(=O)NCCCN2CCC(c3ccccc3C#N)CC2)[C@@H](c2ccc(F)c(F)c2)NC(=O)N1	285	0.6	108	0.42	7	285	< 6	–	–	–	–	–
CC1=C(C(=O)NCCCN2CCC(c3ccc(F)cc3)CC2)[C@H](c2ccc(F)c(F)c2)NC(=O)N1C	–	–	–	20	–	110	–	600	–	–	–	–
COCC1=C(C(=O)NCCCN2CCC(c3ccc(F)cc3C#N)CC2)[C@@H](c2ccc(F)c(F)c2)NC(=O)N1	260	1.5	175	0.14	2.8	35	< 6	–	–	–	–	–
O=C1NC=C(C(=O)NCCCN2CCC(O)(c3ccc(F)cc3)CC2)[C@@H](c2ccc(F)c(F)c2)N1	880	0.5	37	0.91	1.2	160	0	–	–	–	–	–
CN1C=C(C(=O)NCCCN2CCC(C#N)(c3ccc(F)cc3)CC2)[C@H](c2ccc(F)c(F)c2)NC1=O	–	–	72	–	145	–	8	710	320	2.3	–	–
CC1=C(C(=O)NCCCN2CCC(C#N)(c3ccc(F)cc3)CC2)[C@@H](c2ccc(F)c(F)c2)NC(=O)N1C	2200	1.5	45	0.39	21	1100	< 6	–	–	–	–	–
CN1C=C(C(=O)NCCCN2CCC(c3ccc(F)cc3C#N)CC2)[C@@H](c2ccc(F)c(F)c2)NC1=O	69	4	48	0.068	5	7.9	0	–	–	–	–	–
O=C1NC(C(F)(F)F)=C(C(=O)NCCCN2CCC(c3ccc(F)cc3)CC2)[C@@H](c2ccc(F)c(F)c2)N1	1200	–	–	–	–	270	–	–	–	19	–	–
O=C1NC=C(C(=O)NCCCN2CCC(c3ccccn3)CC2)[C@@H](c2ccc(F)c(F)c2)N1	> 3000	–	–	2.5	–	1850	–	–	–	–	–	–
CC1=C(C(=O)NCCCN2CCC(c3ccc(F)cc3)CC2)[C@@H](c2ccc(F)c(F)c2)N(C)C(=O)N1C	–	1	138	–	9	–	17	200	20	0.18	–	–
CC1=C(C(=O)NCCCN2CCC(c3ccc(F)cc3)CC2)[C@@H](c2ccc(F)c(F)c2)NC(=O)N1C	–	2.5	72	–	20	–	< 6	590	120	0.18	–	–
CC(=O)N1C(=O)N(C)C(C)=C(C(=O)NCCCN2CCC(c3ccc(F)cc3)CC2)[C@H]1c1ccc(F)c(F)c1	230	–	–	2.2	–	33	–	–	–	–	–	–
CC1=C(C(=O)NCCCN2CCC(c3ccc(F)cc3)CC2)[C@@H](c2ccc(F)c(F)c2)N(C)C(=O)N1	120	–	–	0.14	–	4.8	–	–	–	–	–	–
N#Cc1ccccc1C1CCN(CCCNC(=O)C2=CNC(=O)N[C@@H]2c2ccc(F)c(F)c2)CC1	160	0.5	43	0.13	1.5	290	0	–	–	–	–	–
N#Cc1ccccc1C1(C#N)CCN(CCCNC(=O)C2=CNC(=O)N[C@@H]2c2ccc(F)c(F)c2)CC1	2400	1	45	0.16	3	970	0	–	–	–	–	–
O=C1NC(C(F)(F)F)=C(C(=O)NCCCN2CCC(c3ccccn3)CC2)[C@@H](c2ccc(F)c(F)c2)N1	> 5000	–	–	500	–	> 2000	–	–	–	–	–	–
CC1=C(C(=O)NCCCN2CCC(C#N)(c3ccc(F)cc3C#N)CC2)[C@@H](c2ccc(F)c(F)c2)NC(=O)N1C	> 4000	1	24	0.6	5	> 2000	0	–	–	–	–	–
CN1C=C(C(=O)NCCCN2CCC(C#N)(c3ccc(F)cc3)CC2)[C@@H](c2ccc(F)c(F)c2)NC1=O	–	4	66	–	14	–	< 6	240	53	0.12	–	–
CC1=C(C(=O)NCCCN2CCC(c3ccc(F)cc3C#N)CC2)[C@@H](c2ccc(F)c(F)c2)NC(=O)N1	215	1.5	25	0.17	1.5	87	0	–	–	–	>300	5
N#Cc1ccccc1C1CCN(CCCNC(=O)C2=C(C(F)(F)F)NC(=O)N[C@@H]2c2ccc(F)c(F)c2)CC1	220	–	–	20	–	700	–	–	–	–	–	–
COC(=O)N1C(=O)N(C)C(C)=C(C(=O)NCCCN2CCC(c3ccc(F)cc3)CC2)[C@H]1c1ccc(F)c(F)c1	170	–	–	0.75	–	25	–	–	–	–	–	–
CC1=C(C(=O)NCCCN2CCC(c3ccc(F)cc3)CC2)[C@H](c2ccc(F)c(F)c2)N(C)C(=O)N1C	–	–	–	–	–	–	–	410	85	11	–	–
CN1C=C(C(=O)NCCCN2CCC(C#N)(c3ccc(F)cc3C#N)CC2)[C@@H](c2ccc(F)c(F)c2)N(C)C1=O	250	3	15	0.3	13	72	< 6	–	–	–	–	–
N#Cc1cc(F)ccc1C1CCN(CCCNC(=O)C2=CNC(=O)N[C@@H]2c2ccc(F)c(F)c2)CC1	62	2	174	0.07	1.8	26	0	–	–	–	–	–
N#Cc1cc(F)ccc1C1CCN(CCCNC(=O)C2=C(C(F)(F)F)NC(=O)N[C@@H]2c2ccc(F)c(F)c2)CC1	270	–	–	4.2	–	200	–	–	–	–	–	–
